The results in this text go back to US12139520B2 (priority 2020, dated 2024).

One data set has as its target T1, hAMY3 receptor (Homo sapiens, UniProt O60896+P30988).
T1 sequence (P30988 25-474): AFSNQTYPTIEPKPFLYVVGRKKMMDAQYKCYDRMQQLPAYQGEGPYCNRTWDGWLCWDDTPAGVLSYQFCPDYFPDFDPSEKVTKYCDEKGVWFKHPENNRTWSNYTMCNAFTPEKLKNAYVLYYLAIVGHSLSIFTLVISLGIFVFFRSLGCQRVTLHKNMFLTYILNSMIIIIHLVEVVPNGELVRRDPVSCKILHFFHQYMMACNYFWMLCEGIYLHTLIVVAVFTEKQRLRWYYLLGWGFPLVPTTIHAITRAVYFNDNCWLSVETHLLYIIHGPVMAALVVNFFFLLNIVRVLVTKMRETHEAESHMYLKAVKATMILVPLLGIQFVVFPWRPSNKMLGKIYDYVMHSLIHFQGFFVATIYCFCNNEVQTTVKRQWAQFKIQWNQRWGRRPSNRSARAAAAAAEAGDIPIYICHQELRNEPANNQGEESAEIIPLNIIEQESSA
T1 sequence (O60896 24-148 partner): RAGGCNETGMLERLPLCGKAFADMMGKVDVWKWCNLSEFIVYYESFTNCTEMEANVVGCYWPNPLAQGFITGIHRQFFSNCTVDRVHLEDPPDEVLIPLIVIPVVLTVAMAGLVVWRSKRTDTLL
Nature of the data set: cAMP assay for in vitro receptor activation, hAMY3-R. The note with it: cAMP assay, hAMY3 receptor; read-out: hAMY3R EC50. Type of data set: cell-based. The gist of the method: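 Thawed cells from a sub-cloned monoclonal hAMY3-overexpressing line are plated in DPBS containing 0.05% casein and 0.5 mM IBMX. Test compounds are added immediately at graded doses for 30 min at room temperature. Reagents for cAMP detection are then added, and TR-FRET is recorded after one hour.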
(In general: Changes in cAMP serve as a functional read-out for many G protein-coupled receptors.)

In a further data set the target is hAM1 receptor (Homo sapiens, UniProt O60895+Q16602). Description: cAMP assay for in vitro receptor activation, hAM1-R. Type of data set: cell-based. The note with it: cAMP assay, hAM1 receptor; read-out: hAM1R EC50. The gist of the method:
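Receptor activation, read as cAMP, was assessed in thawed cells of a monoclonal hAM1-overexpressing stable line, plated at 8000 cells/well in DPBS supplemented with 0.05% casein and 0.5 mM IBMX.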

The nature of data set [1]: Physical stability of peptide analogues (Thioflavin T fibrillation). Type of data set: physicochemical. The note with it: maximum ThT signal normalized between hAMY maximum and buffer background; 40° C., shaking, four days; pH 7 per table title. Summed up:
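Peptides in 50 mM sodium acetate pH 4 or 50 mM sodium phosphate pH 7 were preincubated 1 h, mixed with 4 μM ThT, held at 40° C with 700 rpm shaking before each read. Fluorescence (ex 450/em 480 nm) every 10 min for four days; LOESS-smoothed maximum signal normalized in percent between hAMY and buffer.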

Structures are written as SMILES. pEC50: −log10 of the molar value. Bridge positions count the residues as written; N and C are the ends. Square brackets hold non-standard residues; d marks the D form. Peptide text beside a SMILES is read from it. Hyp = O=C(O)[C@@H]1C[C@@H](O)CN1

Sequence of hAM1 receptor (Q16602 23-461): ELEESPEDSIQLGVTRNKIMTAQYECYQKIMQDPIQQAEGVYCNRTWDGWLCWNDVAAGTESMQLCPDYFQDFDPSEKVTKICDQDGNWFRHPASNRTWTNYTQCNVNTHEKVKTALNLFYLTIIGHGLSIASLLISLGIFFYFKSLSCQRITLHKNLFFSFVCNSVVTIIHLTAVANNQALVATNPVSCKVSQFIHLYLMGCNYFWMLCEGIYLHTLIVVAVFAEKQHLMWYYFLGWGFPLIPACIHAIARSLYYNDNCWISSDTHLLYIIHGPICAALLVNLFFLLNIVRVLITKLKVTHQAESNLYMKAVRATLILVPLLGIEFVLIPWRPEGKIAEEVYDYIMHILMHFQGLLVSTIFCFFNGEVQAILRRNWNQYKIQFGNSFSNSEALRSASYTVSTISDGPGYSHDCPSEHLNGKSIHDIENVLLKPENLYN
Sequence of hAM1 receptor (O60895 43-175 partner): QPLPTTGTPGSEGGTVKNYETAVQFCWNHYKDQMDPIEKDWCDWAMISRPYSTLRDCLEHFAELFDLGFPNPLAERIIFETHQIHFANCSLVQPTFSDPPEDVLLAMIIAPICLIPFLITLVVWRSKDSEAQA

As a reminder, the pEC50 is the EC50 on a negative log10 scale, so that one unit is a factor of ten. Consider `CC[C@H](C)[C@H](NC(=O)[C@H](CC(N)=O)NC(=O)[C@@H](NC(=O)[C@H](CCCNC(=N)N)NC(=O)[C@@H]1CCCN1C(=O)[C@H](C)NC(=O)[C@@H](NC(=O)[C@H](CC(N)=O)NC(=O)[C@H](CC(=O)O)NC(=O)[C@H](CCCCN)NC(=O)[C@H](CC(=O)O)NC(=O)[C@H](CCCCN)NC(=O)[C@H](CC(=O)O)NC(=O)[C@@H](NC(=O)[C@H](Cc1ccccc1)NC(=O)[C@H](CCC(N)=O)NC(=O)[C@H](Cc1ccc(O)cc1)NC(=O)[C@@H](NC(=O)[C@H](CCC(N)=O)NC(=O)[C@H](Cc1c[nH]cn1)NC(=O)[C@H](C)NC(=O)[C@H](CC(C)C)NC(=O)[C@H](Cc1c[nH]c2ccccc12)NC(=O)[C@H](CCC(N)=O)NC(=O)[C@@H](NC(=O)[C@@H](NC(=O)[C@@H]1CSSC[C@H](NC(=O)CN)C(=O)N[C@@H](CCCNC(=N)N)C(=O)N[C@@H]([C@@H](C)O)C(=O)NCC(=O)N[C@@H]([C@@H](C)O)C(=O)N1)[C@@H](C)O)C(C)C)[C@@H](C)CC)[C@@H](C)O)C(C)C)[C@@H](C)O)C(=O)NCC(=O)N1CCC[C@H]1C(=O)N[C@@H](CC(N)=O)C(=O)NCC(=O)N[C@@H](Cc1ccc(O)cc1)C(N)=O` [compound 348] (H-GCRTGTCTVQWLAHQIYQFTDKDKDNVAPRTNIGPNGY-NH2; disulfide 2-7; N-terminus assumed), for which the values for the pEC50 on hAMY3 receptor and on hAM1 receptor were 10.39 and less than 5.30, respectively. Also, the “Max ThT signal (%)” value in data set [1] came out at 2.750%.

With `CC[C@H](C)[C@H](NC(=O)[C@H](CCC(N)=O)NC(=O)[C@H](Cc1c[nH]cn1)NC(=O)[C@H](C)NC(=O)[C@H](CC(C)C)NC(=O)[C@H](Cc1c[nH]c2ccccc12)NC(=O)[C@H](CCC(N)=O)NC(=O)[C@@H](NC(=O)[C@@H](NC(=O)[C@@H]1CSSC[C@H](NC(=O)CN)C(=O)N[C@@H](CCCNC(=N)N)C(=O)N[C@@H]([C@@H](C)O)C(=O)NCC(=O)N[C@@H]([C@@H](C)O)C(=O)N1)[C@@H](C)O)C(C)C)C(=O)N[C@@H](Cc1ccc(O)cc1)C(=O)N[C@@H](CCC(N)=O)C(=O)N[C@@H](Cc1ccccc1)C(=O)N[C@H](C(=O)N[C@@H](CC(=O)O)C(=O)N[C@@H](CCCCN)C(=O)N[C@@H](CC(=O)O)C(=O)N[C@@H](CCCCN)C(=O)N[C@@H](CC(=O)O)C(=O)N[C@@H](CC(N)=O)C(=O)N[C@H](C(=O)N[C@@H](C)C(=O)N1CCC[C@H]1C(=O)N[C@@H](CCCNC(=N)N)C(=O)N[C@H](C(=O)N[C@@H](CCCCN)C(=O)N[C@H](C(=O)NCC(=O)N1CCC[C@H]1C(=O)N[C@@H](CCC(N)=O)C(=O)NCC(=O)N[C@@H](Cc1ccc(O)cc1)C(N)=O)C(C)C)[C@@H](C)O)C(C)C)[C@@H](C)O` [compound 354] (H-GCRTGTCTVQWLAHQIYQFTDKDKDNVAPRTKVGPQGY-NH2; disulfide 2-7; N-terminus assumed), the values for the negative-log EC50 (pEC50) on hAMY3 receptor and at hAM1 receptor were 10.04 and less than 5.30, respectively. Besides, in data set [1], the “Max ThT signal (%)” value stood at 17.400%.

For `CC[C@H](C)[C@H](NC(=O)[C@H](CCC(N)=O)NC(=O)[C@H](Cc1c[nH]cn1)NC(=O)[C@H](C)NC(=O)[C@H](CC(C)C)NC(=O)[C@H](Cc1c[nH]c2ccccc12)NC(=O)[C@H](CCC(N)=O)NC(=O)[C@@H](NC(=O)[C@@H](NC(=O)[C@@H]1CSSC[C@H](NC(=O)CN)C(=O)N[C@@H](CCCNC(=N)N)C(=O)N[C@@H]([C@@H](C)O)C(=O)NCC(=O)N[C@@H]([C@@H](C)O)C(=O)N1)[C@@H](C)O)C(C)C)C(=O)N[C@@H](Cc1ccc(O)cc1)C(=O)N[C@@H](CCC(N)=O)C(=O)N[C@@H](Cc1ccccc1)C(=O)N[C@H](C(=O)N[C@@H](CC(=O)O)C(=O)N[C@@H](CCCCN)C(=O)N[C@@H](CC(=O)O)C(=O)N[C@@H](CCCCN)C(=O)N[C@@H](CC(=O)O)C(=O)N[C@@H](CC(N)=O)C(=O)N[C@H](C(=O)N[C@@H](C)C(=O)N1CCC[C@H]1C(=O)N[C@@H](CCCNC(=N)N)C(=O)N[C@H](C(=O)N[C@@H](CC(N)=O)C(=O)N[C@H](C(=O)N[C@@H](CO)C(=O)N1CCC[C@H]1C(=O)N[C@@H](CC(N)=O)C(=O)NCC(=O)N1C[C@H](O)C[C@H]1C(N)=O)C(C)C)[C@@H](C)O)C(C)C)[C@@H](C)O` [compound 358] (H-GCRTGTCTVQWLAHQIYQFTDKDKDNVAPRTNVSPNG[Hyp]-NH2; disulfide 2-7; N-terminus assumed), the figures for the pEC50 at hAMY3 receptor and at hAM1 receptor were 10.15 and less than 5.30, respectively. In addition, the “Max ThT signal (%)” value in data set [1] is 24.350%.

On to `CC[C@H](C)[C@H](NC(=O)[C@H](CCC(N)=O)NC(=O)[C@H](Cc1c[nH]cn1)NC(=O)[C@H](C)NC(=O)[C@H](CC(C)C)NC(=O)[C@H](CCCNC(=N)N)NC(=O)[C@H](CCC(N)=O)NC(=O)[C@@H](NC(=O)[C@@H](NC(=O)[C@@H]1CSSC[C@H](NC(=O)CN)C(=O)N[C@@H](CCCNC(=N)N)C(=O)N[C@@H](Cc2ccccc2)C(=O)NCC(=O)N[C@@H]([C@@H](C)O)C(=O)N1)[C@@H](C)O)C(C)C)C(=O)N[C@@H](Cc1ccc(O)cc1)C(=O)N[C@@H](CCC(N)=O)C(=O)N[C@@H](Cc1ccccc1)C(=O)N[C@H](C(=O)N[C@@H](CC(=O)O)C(=O)N[C@@H](CCCCN)C(=O)N[C@@H](CC(=O)O)C(=O)N[C@@H](CCCCN)C(=O)N[C@@H](CC(=O)O)C(=O)N[C@@H](CC(N)=O)C(=O)N[C@H](C(=O)N[C@@H](C)C(=O)N1CCC[C@H]1C(=O)N[C@@H](CCCNC(=N)N)C(=O)N[C@@H](CO)C(=O)N[C@@H](CC(N)=O)C(=O)N[C@H](C(=O)NCC(=O)N1CCC[C@H]1C(=O)N[C@@H](CCC(N)=O)C(=O)NCC(=O)N[C@@H](Cc1ccc(O)cc1)C(N)=O)C(C)C)C(C)C)[C@@H](C)O` [compound 374] (H-GCRFGTCTVQRLAHQIYQFTDKDKDNVAPRSNVGPQGY-NH2; disulfide 2-7; N-terminus assumed), for which the pEC50 at hAMY3 receptor is 10.68; on hAM1 receptor, 7.92. In addition, the “Max ThT signal (%)” value in data set [1] is on record as 4.800%.

Regarding `CC[C@H](C)[C@H](NC(=O)[C@H](CCC(N)=O)NC(=O)[C@H](Cc1c[nH]cn1)NC(=O)[C@H](C)NC(=O)[C@H](CC(C)C)NC(=O)[C@H](CCCNC(=N)N)NC(=O)[C@H](CCC(N)=O)NC(=O)[C@@H](NC(=O)[C@@H](NC(=O)[C@@H]1CSSC[C@H](NC(=O)CN)C(=O)N[C@@H](CCCNC(=N)N)C(=O)N[C@@H](Cc2ccccc2)C(=O)NCC(=O)N[C@@H]([C@@H](C)O)C(=O)N1)[C@@H](C)O)C(C)C)C(=O)N[C@@H](Cc1ccc(O)cc1)C(=O)N[C@@H](CCC(N)=O)C(=O)N[C@@H](Cc1ccccc1)C(=O)N[C@H](C(=O)N[C@@H](CC(=O)O)C(=O)N[C@@H](CCCCN)C(=O)N[C@@H](CC(=O)O)C(=O)N[C@@H](CCCCN)C(=O)N[C@@H](CC(=O)O)C(=O)N[C@@H](CC(N)=O)C(=O)N[C@H](C(=O)N[C@@H](C)C(=O)N1CCC[C@H]1C(=O)N[C@@H](CCCNC(=N)N)C(=O)N[C@@H](CO)C(=O)N[C@@H](CC(N)=O)C(=O)N[C@H](C(=O)N[C@@H](CO)C(=O)N1CCC[C@H]1C(=O)N[C@@H](CC(N)=O)C(=O)NCC(=O)N[C@@H](Cc1ccc(O)cc1)C(N)=O)[C@@H](C)CC)C(C)C)[C@@H](C)O` [compound 383] (H-GCRFGTCTVQRLAHQIYQFTDKDKDNVAPRSNISPNGY-NH2; disulfide 2-7; N-terminus assumed), the negative-log EC50 (pEC50) on hAMY3 receptor is 10.47; at hAM1 receptor it was 8.23. The “Max ThT signal (%)” value in data set [1] turned out to be 9.600%.
